What was measured:
[1] = target: T1, 26S proteasome isolated from AGS cells (Homo sapiens, UniProt P28074); test: 26S proteasome inhibition; format: biochemical
T1 construct: purified 26S proteasome isolated from AGS cells; endogenous in cells; host or cells: AGS cells
T1 sequence (P28074 60-263): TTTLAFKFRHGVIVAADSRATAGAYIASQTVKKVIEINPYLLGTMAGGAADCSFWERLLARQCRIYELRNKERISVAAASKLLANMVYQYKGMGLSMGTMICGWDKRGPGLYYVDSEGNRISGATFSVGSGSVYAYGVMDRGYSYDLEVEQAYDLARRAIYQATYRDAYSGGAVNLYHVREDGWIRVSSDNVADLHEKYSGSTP
Protocol: This assay was carried out in the same way as described for 20S proteasome (vide supra), except using purified 26S proteasome isolated from AGS cells. To extract 26S proteasome from cells, they were centrifuged at 1300 rpm for 3 min at 37 °C and the supernatant was rejected. The pellet was then resuspended in 5 mL of HBSS. After this step, the cells were centrifuged again under the conditions referred to above and the supernatant was rejected. Then, 1 mL of cell lysis buffer was added, before being placed in ice (4 °C) for 30 min. Subsequently, the mixture was centrifuged at 14,000 g during 30 min at 4 °C. The pellet was rejected, and the supernatant was kept in an Eppendorf tube. The quantity of protein isolated was determined by Bradford Assay.
A stock solution of bovine serum albumin (BSA) (1.0 mg/mL) was prepared in H2O. From the stock solution, six concentrations were prepared: 5%, 4%, 3%, 2%, 1% and 0% stock solution in H2O. An aliquot of each sample (40 µL) was added to a solution of the Bradford reagent (200 µL). After 5 min, the absorbance was measured at 595 nm and the calibration curve was plotted (correlation > 0.99). […] After 5 min, the absorbance was measured at 595 nm and the result was compared with the correlation curve in order to calculate the concentration of protein.

[2] = target: T2, COX-2 (Homo sapiens, UniProt P35354); design: method as in PMID 30987203; details: 25 µM; low selectivity towards COX-2; cited from earlier work
T2 construct: purchased Cayman Chemical
T2 sequence (P35354 18-604): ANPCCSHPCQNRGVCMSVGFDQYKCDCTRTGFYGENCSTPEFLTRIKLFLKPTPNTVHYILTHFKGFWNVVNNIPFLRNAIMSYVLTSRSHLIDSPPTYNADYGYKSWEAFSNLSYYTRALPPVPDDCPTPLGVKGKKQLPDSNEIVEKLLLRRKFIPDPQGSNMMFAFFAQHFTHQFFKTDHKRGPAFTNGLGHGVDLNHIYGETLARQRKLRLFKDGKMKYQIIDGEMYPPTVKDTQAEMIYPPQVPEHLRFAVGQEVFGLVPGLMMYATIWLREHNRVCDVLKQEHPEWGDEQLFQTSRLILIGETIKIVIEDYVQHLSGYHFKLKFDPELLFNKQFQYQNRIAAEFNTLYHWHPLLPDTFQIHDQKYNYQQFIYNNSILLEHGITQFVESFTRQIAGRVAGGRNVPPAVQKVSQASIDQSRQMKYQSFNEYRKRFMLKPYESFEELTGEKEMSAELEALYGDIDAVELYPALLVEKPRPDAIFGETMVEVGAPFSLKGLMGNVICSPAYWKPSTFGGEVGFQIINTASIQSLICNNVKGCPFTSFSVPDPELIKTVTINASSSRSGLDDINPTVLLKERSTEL

COc1ccc2cc(C(C)C(=O)NC(Cc3ccc(O)cc3)C(=O)NC(=Cc3ccccc3)C(=O)O)ccc2c1 [Compound 1, Npx-L-Tyr-Z-ΔPhe-OH]
26S proteasome activity versus control ([1]; 100 µM): 8.1%
IC50 ([1]; dose-response assay): 18.6 µM
COX inhibition level (COX-2) [2]: modest levels of COX inhibition

From article PMC7076388 (Pharmaceutics, 2020)
